{"source": "patent US20130090364A1", "about": "“ANALOGUES FOR THE TREATMENT OR PREVENTION OF FLAVIVIRUS INFECTIONS” (priority 2010, published 2013)"}
{"system": "HCV (1b) RNA replication (replicon I389Luc-ubi-neo/NS3-3′/5.1)", "experiment": "Cell-based luciferase reporter HCV (1b) RNA replication assay, Huh-ET cells", "details": "Hepatitis C virus; Table 2A; HCV genotype 1b replicon", "from_the_text": "(§1) Cell-Based Luciferase Reporter HCV (Ib) RNA Replication Assay Cell Culture\n(§2) Replicon cell lines Huh-5.2 are derived from the Huh-7 hepatocarcinoma cell line are maintained in culture as generally described in Krieger, N; Lohmann, V; Bartenschlager, R. Enhancement of hepatitis C virus RNA replication by cell culture-adaptive mutations. J. Virol. 2001, 75, 4614-4624. The Huh-5.2 cells contain the highly cell culture-adapted replicon I389Luc-ubi-neo/NS3-3′/5.1 construct that carries, in addition to the neomycin gene, an integrated copy to the firefly luciferase gene (Krieger, N; Lohmann, V; Bartenschlager, R. Enhancement of hepatitis C virus RNA replication by cell culture-adaptive mutations. J. Virol. 2001, 75, 4614-4624). This cell line allows measurement of HCV RNA replication and translation by measuring luciferase activity. It has been previously shown that the luciferase activity tightly follows the replicon RNA level in these cells (Krieger, N; Lohmann, V; Bartenschlager, R. Enhancement of hepatitis C virus RNA replication by cell culture-adaptive mutations. J. Virol. 2001, 75, 4614-4624). The Huh-ET cell line has the same features as those mentioned for Huh-5.2 cell line, except that ET cells are more robust and contain an adaptative mutation in the HCV NS4B gene instead of NSSA. Both cell lines are maintained in cultures at a sub-confluent level (<85%) as the level of replicon RNA is highest in actively proliferating cells. The culture media used for cell passaging consist of DMEM (Gibco BRL Laboratories, Mississauga, ON, Canada) supplemented with 10% foetal bovine serum with 1% penicilin/streptomycin, 1% glutamine, 1% sodium pyruvate, 1% non-essential amino acids, and 180 μg/ml of G418 final concentration. Cells are incubated at 37° C., in an atmosphere of 5% CO2 and passaged twice a week to maintain sub-confluence.\n(§3) Approximately 3000 viable Huh-ET cells (100 μl) are plated per well in a white opaque 96-well microtiter plate. The cell culture media used for the assay is the same as described above except that it contains no G418 and no phenol red. After an incubation period of 3-4 hours at 37° C. in a 5% CO2 incubator, compounds (100 μl) are added at various concentrations. Cells are then further incubated for 4 days at 37° C. in a 5% CO2 incubator. Thereafter, the culture media is removed and cells are lysed by the addition of 95 μL of the luciferase buffer (luciferin substrate in buffered detergent). Cell lysates are incubated at room temperature and protected from direct light for at least 10 minutes. Plates are read for luciferase counts using a luminometer (Wallac MicroBeta Trilux, Perkin Elmer™, MA, USA).\n(§4) Curves are fitted to data points using nonlinear regression analysis, and IC50s are interpolated from the resulting curve using GraphPad Prism software, version 2.0 (GraphPad Software Inc., San Diego, Calif., USA).", "units": {"EC50": "nM"}}
{"smiles": "COC(=O)N[C@H](C(=O)N1CCCC1c1nc2cc(C#Cc3cc4[nH]c([C@@H]5CCCN5C(=O)[C@@H](NC(=O)OC)C(C)C)nc4s3)ccc2[nH]1)C(C)C", "note": "(stereo partly drawn) [Compound 1]", "EC50": "≤ 5"}
{"smiles": "COC(=O)N[C@H](C(=O)N1CCC[C@H]1c1nc2sc(C#CC#Cc3cc4[nH]c([C@@H]5CCCN5C(=O)[C@@H](NC(=O)OC)C(C)C)nc4s3)cc2[nH]1)C(C)C", "note": "[Compound 2]", "EC50": "≤ 5"}
{"smiles": "COC(=O)N[C@H](C(=O)N1C[C@@H](C)C[C@H]1c1nc2cc(C#Cc3cc4[nH]c([C@@H]5C[C@H](C)CN5C(=O)[C@@H](NC(=O)OC)C(C)C)nc4s3)ccc2[nH]1)C(C)C", "note": "[Compound 3]", "EC50": "≤ 5"}
{"smiles": "COC(=O)N[C@H](C(=O)N1C[C@@H](C)C[C@H]1c1nc2sc(C#CC#Cc3cc4[nH]c([C@@H]5C[C@H](C)CN5C(=O)[C@@H](NC(=O)OC)C(C)C)nc4s3)cc2[nH]1)C(C)C", "note": "[Compound 4, dimethyl (2S,2′S)-1,1′-((3S,3′S,5S,5′S)-5,5′-(5,5′-(buta-1,3-diyne-1,4-diyl)bis(1H-thieno[2,3-d]imidazole-5,2-diyl))bis(3-methylpyrrolidine-5,1-diyl))bis(3-methyl-1-oxobutane-2,1-diyl)dicarbamate]", "EC50": "≤ 5"}
{"smiles": "COC(=O)N(C)[C@H](C(=O)N1C[C@@H](C)C[C@H]1c1nc2sc(C#CC#Cc3cc4[nH]c([C@@H]5C[C@H](C)CN5C(=O)[C@H](C(C)C)N(C)C(=O)OC)nc4s3)cc2[nH]1)C(C)C", "note": "[Compound 5]", "EC50": "≤ 5"}
{"smiles": "COC(=O)N[C@H](C(=O)N1C[C@@H](C)C[C@H]1c1nc2sc(-c3ccc(-c4ccc5[nH]c([C@@H]6CC[C@H](C)N6C(=O)[C@@H](NC(=O)OC)C(C)C)nc5c4)cc3)cc2[nH]1)C(C)C", "note": "[Compound 7]", "EC50": "≤ 5"}
{"smiles": "COC(=O)N[C@H](C(=O)N1C[C@@H](C)C[C@H]1c1nc2sc(-c3ccc(-c4ccc5nc([C@@H]6CC[C@H](C)N6C(=O)[C@@H](NC(=O)OC)C(C)C)oc5c4)cc3)cc2[nH]1)C(C)C", "note": "[Compound 8]", "EC50": "≤ 5"}
{"system": "HCV (1b) RNA replication (replicon I389Luc-ubi-neo/NS3-3′/5.1)", "experiment": "Cell-based luciferase reporter HCV (1b) RNA replication assay, Huh-ET cells", "details": "Hepatitis C virus; Table 2B; HCV genotype 1b replicon", "from_the_text": "as §1, §2, §3, §4", "units": {"EC50": "nM"}}
{"smiles": "COC(=O)N[C@H](C(=O)N1C[C@@H](C)C[C@H]1c1nc(Cl)c(-c2ccc(-c3ccc(-c4cc5nc([C@@H]6C[C@H](C)CN6C(=O)[C@@H](NC(=O)OC)C(C)C)[nH]c5s4)cc3)cc2)[nH]1)C(C)C", "note": "[Compound 1a]", "EC50": "≤ 5"}
{"smiles": "COC(=O)N[C@H](C(=O)N1C[C@@H](C)C[C@H]1c1nc(Cl)c(-c2ccc(-c3ccc(-c4sc5[nH]c([C@@H]6C[C@H](C)CN6C(=O)[C@@H](NC(=O)OC)C(C)C)nc5c4Cl)cc3)cc2)[nH]1)C(C)C", "note": "[Compound 2a]", "EC50": "≤ 5"}
{"smiles": "COC(=O)N[C@H](C(=O)N1C[C@@H](C)C[C@H]1c1nc(I)c(-c2ccc(-c3ccc(-c4cc5nc([C@@H]6C[C@H](C)CN6C(=O)[C@@H](NC(=O)OC)C(C)C)[nH]c5s4)cc3)cc2)[nH]1)C(C)C", "note": "[Compound 3a]", "EC50": "≤ 5"}
{"smiles": "C[C@H]1C[C@@H](c2ncc(-c3ccc(-c4ccc(-c5cc6[nH]c([C@@H]7C[C@H](C)CN7C(=O)OC(C)(C)C)nc6s5)cc4)c(F)c3)[nH]2)N(C(=O)OC(C)(C)C)C1", "note": "[Compound 4a]", "EC50": "≤ 5"}
{"smiles": "COC(=O)N[C@H](C(=O)N1C[C@@H](C)C[C@@H]1c1nc2cc(-c3ccc(-c4ccc(-c5c[nH]c([C@@H]6C[C@H](C)CN6C(=O)[C@@H](NC(=O)OC)C(C)C)n5)cc4)cc3C)sc2[nH]1)C(C)C", "note": "[Compound 5a]", "EC50": "≤ 5"}
{"smiles": "COC(=O)N[C@H](C(=O)N1C[C@@H](C)C[C@H]1c1nc(-c2ccc(-c3ccc(-c4cc5[nH]c([C@@H]6C[C@H](C)CN6C(=O)[C@@H](NC(=O)OC)C(C)C)nc5s4)cc3F)cc2)c[nH]1)C(C)C", "note": "[Compound 6a]", "EC50": "≤ 5"}
{"smiles": "COC(=O)N[C@H](C(=O)N1C[C@@H](C)C[C@H]1c1nc(-c2ccc(-c3ccc(-c4cc5[nH]c([C@@H]6C[C@H](C)CN6C(=O)[C@@H](NC(=O)OC)C(C)C)nc5s4)c(F)c3)cc2)c[nH]1)C(C)C", "note": "[Compound 7a]", "EC50": "≤ 5"}
{"smiles": "COC(=O)N[C@H](C(=O)N1C[C@@H](C)C[C@H]1c1nc(-c2ccc(-c3ccc(-c4cc5[nH]c([C@@H]6C[C@H](C)CN6C(=O)[C@@H](NC(=O)OC)C(C)C)nc5s4)cc3C)cc2)c[nH]1)C(C)C", "note": "[Compound 8a]", "EC50": "≤ 5"}
